For assay [1] the following is noted: heart failure patients, continuous intravenous treatment, cited from earlier work.
The next assay deals with β-ARs. Particulars: heart failure patients, continuous intravenous treatment; cited from earlier work.
A further assay has as its target rtPDE3A (Homo sapiens, UniProt Q14432). The experiment in a line: PDE3 activity assay, cAMP hydrolysis with and without cilostazol. Type of assay: biochemical. Particulars: 0.1 μmol/L cilostazol; read-out: inhibition of rtPDE3A, submaximal (printed as IC44). Here is the method: cAMP-hydrolytic activity was quantified according to the method of Kincaid and Manganiello (1988) as described in detail previously (Movesian et al., 1991). Briefly, microsomal fractions were added to a reaction mixture containing 0.3 mol/L NaHEPES, 0.6 mmol/L EGTA, […] MgCl2 (pH 7.5) and 0.1 μmol/L [^3H]cAMP (Perkin Elmer, Boston, Mass.). cAMP hydrolysis occurred for 10 minutes at 30° C., then the reaction was stopped by the addition of 10.1 mmol/L unlabeled cAMP and […] unlabeled 5′AMP in 0.25 mol/L HCl. The reaction mixture was neutralized with NaOH. [^3H]5′AMP was converted to [^3H]adenosine by incubation with Crotalus atrox venom (30 mg/ml) for 30 minutes at 30° C. The reaction mixture was then applied to QAE-Sephadex columns, and [^3H]adenosine was eluted with water. Cyclic AMP hydrolysis in pmol/min/mg was determined by measuring [^3H]adenosine in the eluent. PDE activity was measured in the presence and absence of 0.1 μmol/L cilostazol, a concentration that inhibits rtPDE3A submaximally (IC44); PDE3 activity was calculated by dividing the difference in activity in the presence and absence of cilostazol by the fractional inhibition of PDE3 activity at this concentration.

The test system of another assay is PDE3A promoter. In words: PDE3A promoter (INS/DEL) luciferase reporter in transfected NRVMs. It counts as cell-based, rat. Particulars: for luciferase activity of the DEL promoter construct: DEL construct containing the CRE; for luciferase activity of the DEL promoter construct / up-regulation of PDE3A expression, INS construct (luciferase): 1 μmol/L dibutyryl cAMP or 5 μmol/L enoximone for 48 hours. The procedure: Neonatal rat ventricular myocytes (NRVMs) were prepared from the hearts of 2-day-old rat pups by enzymatic digestion as described (Simpson et al., 1982; Waspe et al., 1990; Singh et al., 2000).
Cloning of the PDE3A promoter region was performed using PCR primers that amplified the −1434/+440 region of the human promoter that contains the INS/DEL genotype. The resulting fragment was cloned in the Promega pGL3-basic vector using MluI and BglII sites as previously described (Sucharov et al., 2003). Cloning of the construct that lacks the cAMP response element (CRE) was done by amplifying the −1066/+440 region of the PDE3A promoter downstream from the CRE site.
Firefly luciferase plasmid DNA was transfected using the Lonza system as previously described (Sucharov et al., 2008). […] Luciferase activity was determined as previously described (Sucharov et al., 2003).

Chain of rtPDE3A (Q14432 whole entry): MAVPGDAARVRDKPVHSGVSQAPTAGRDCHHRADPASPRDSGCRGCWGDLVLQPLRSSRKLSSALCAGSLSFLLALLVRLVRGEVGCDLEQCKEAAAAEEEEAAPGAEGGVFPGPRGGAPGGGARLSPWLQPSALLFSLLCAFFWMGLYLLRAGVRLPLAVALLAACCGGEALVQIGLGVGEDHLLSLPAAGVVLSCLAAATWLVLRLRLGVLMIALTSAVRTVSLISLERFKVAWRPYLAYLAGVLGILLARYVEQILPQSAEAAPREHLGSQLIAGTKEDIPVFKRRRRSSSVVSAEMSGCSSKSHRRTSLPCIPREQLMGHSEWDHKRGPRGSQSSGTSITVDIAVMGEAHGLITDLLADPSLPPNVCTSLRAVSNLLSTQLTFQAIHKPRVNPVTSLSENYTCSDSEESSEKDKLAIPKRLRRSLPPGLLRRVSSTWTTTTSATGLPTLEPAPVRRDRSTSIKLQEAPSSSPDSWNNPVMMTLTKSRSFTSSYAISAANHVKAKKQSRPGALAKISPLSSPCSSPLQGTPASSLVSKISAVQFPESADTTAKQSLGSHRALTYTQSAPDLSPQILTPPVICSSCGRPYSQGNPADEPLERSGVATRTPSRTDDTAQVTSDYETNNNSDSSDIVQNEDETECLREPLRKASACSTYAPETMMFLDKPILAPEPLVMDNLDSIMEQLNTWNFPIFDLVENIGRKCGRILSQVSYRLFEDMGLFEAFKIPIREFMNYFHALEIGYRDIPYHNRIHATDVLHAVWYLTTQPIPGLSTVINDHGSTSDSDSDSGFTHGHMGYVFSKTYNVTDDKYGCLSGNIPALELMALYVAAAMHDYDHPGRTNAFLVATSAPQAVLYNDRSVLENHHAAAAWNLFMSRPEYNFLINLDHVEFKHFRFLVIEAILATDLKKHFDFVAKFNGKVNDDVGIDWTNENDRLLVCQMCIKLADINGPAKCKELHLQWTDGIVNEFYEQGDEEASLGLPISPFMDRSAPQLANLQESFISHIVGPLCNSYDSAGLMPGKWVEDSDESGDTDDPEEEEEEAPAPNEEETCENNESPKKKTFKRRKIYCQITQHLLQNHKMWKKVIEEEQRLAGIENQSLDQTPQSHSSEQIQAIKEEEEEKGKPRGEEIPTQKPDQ

Regarding `Nc1cc(-c2ccncc2)c[nH]c1=O` [amrinone], the “cardiac output at 24 hours” value in assay [1] (24 hours) is “increase”. The “cardiac output by 72 hours” value in assay [1] (72 hours) is “return to baseline values”. The “β-ARs in lymphocytes of treated patients” value with β-ARs is “Down-regulation and desensitization”.
Broadly, the inhibition is the percentage by which the read-out fell short of the control. Regarding `O=C1CCc2cc(OCCCCc3nnnn3C3CCCCC3)ccc2N1` [cilostazol], at rtPDE3A, the inhibition at 0.1 µM worked out at 44%.
`CCCC(=O)Nc1ncnc2c1ncn2[C@@H]1O[C@@H]2COP(=O)(O)O[C@H]2[C@H]1OC(=O)CCC` [dibutyryl cAMP]: in the assay on PDE3A promoter, the “luciferase activity of the DEL promoter construct” value was “increased luciferase activity” and the “up-regulation of PDE3A expression, INS construct (luciferase)” value is listed as “no evidence of up-regulation”. Besides, the “cAMP-induced increase in promoter activity, DEL construct with CRE sequence deleted” value in the assay on PDE3A promoter (DEL construct lacking the CRE (-1066/+440), 48 hours) is reported as “prevented”.
Take `CSc1ccc(C(=O)c2[nH]c(=O)[nH]c2C)cc1` [enoximone]: in the assay on PDE3A promoter, the “luciferase activity of the DEL promoter construct” value is on record as “increased luciferase activity” and the “up-regulation of PDE3A expression, INS construct (luciferase)” value was “no evidence of up-regulation”.

Source of the values: US20200239957A1, “PREDICTION AND TREATMENT OF HEART FAILURE” (The Regents of the University of Colorado, a body corporate, priority 2013, published 2020).
